We go through 25 molecules from ChEMBL document CHEMBL1201862, “PubChem BioAssay data set” (2004).

Test systems include SNB-78; DLD-1; M19-MEL; RXF 631; XF498; DMS-114; DMS-273; HOP-18; KM-20L2.
What all share (assay): inhibition of tumour cell growth, NCI panel, 48 h

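A five-concentration, 48-hour dose response in 96-well plates underlies each endpoint, interpolated linearly between surrounding concentrations. GI50 marks 50% less growth.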 Calls of active or inactive are those of the source. Cut-off read from the data, not from the text of the source: active = GI50 up to about 1.1 µM and inactive = higher. Some results are limits rather than exact numbers.

Take `OC1CC1Sc1ccccc1` (stereo not drawn): the GI50 in the experiment with SNB-78 is 26.9 µM (inactive); in the experiment on DLD-1 it was 29.8 µM (inactive); in the experiment on M19-MEL, 32.9 µM (inactive); in the experiment with RXF 631, 39.9 µM (inactive); with XF498 it was 79.8 µM (inactive); in the experiment on DMS-114, 24.7 µM (inactive). The GI50 in the experiment with DMS-273 was 33 µM (inactive).
On to `OCCN(CCO)c1ncnc2c1sc(=S)n2-c1ccccc1`, for which the GI50 in the experiment with SNB-78, with DLD-1, in the experiment with M19-MEL, in the experiment on XF498, in the experiment with DMS-114 and with HOP-18 was > 100 µM (inactive) throughout. Besides, the GI50 with KM-20L2 and in the experiment with DMS-273 was > 100 µM (inactive) throughout.
On to `CCCC/C=C1\CCC(CN2CCCC2)C1=O` (stereo not drawn), for which the GI50 in the experiment on SNB-78 was 26.4 µM (inactive); with DLD-1, 3.76 µM (inactive); with M19-MEL, 16.9 µM (inactive); in the experiment on RXF 631, 17.7 µM (inactive); in the experiment with XF498, 16.1 µM (inactive); with DMS-114, 15.9 µM (inactive). Also, the values for the GI50 in the experiment with KM-20L2 and in the experiment with DMS-273 were 14.7 µM (inactive) and 16.7 µM (inactive), respectively.
With `C/C(CC(=O)Nc1ccc(C)c(C)c1)=N\NC(N)=O`, the GI50 with SNB-78, in the experiment with DLD-1, in the experiment with M19-MEL, in the experiment on DMS-114 and with KM-20L2 was > 100 µM (inactive) each time.
As to `C/C(=N\NC(=N)N)C(CN1CCOCC1)C(c1ccccc1)c1c(O)c2ccccc2oc1=O` (stereo not drawn), the GI50 with SNB-78 was 50.8 µM (inactive); in the experiment on DLD-1, > 100 µM (inactive); in the experiment with M19-MEL it was > 100 µM (inactive); with XF498 it was > 100 µM (inactive); with DMS-114, 45.8 µM (inactive); in the experiment on HOP-18, > 100 µM (inactive). The GI50 in the experiment with KM-20L2 and with DMS-273 was > 100 µM (inactive) each time.
For `Cn1c2cc([N+](=O)[O-])ccc2c(=O)c2c(O)cc3c(c21)C=CC(C)(C)O3`, the GI50 with SNB-78 was 40.5 µM (inactive); with DLD-1, > 100 µM (inactive); with XF498, 21 µM (inactive); with HOP-18, < 0.01 µM (active); with KM-20L2 it was > 100 µM (inactive); in the experiment on DMS-273, 54 µM (inactive).
With `CCN(CCCl)CCCCCNc1c2ccccc2nc2ccc(OC)cc12`, the GI50 with SNB-78 is 0.736 µM (active); in the experiment with DLD-1 it was 0.35 µM (active); with M19-MEL, 0.476 µM (active); in the experiment with XF498, 0.251 µM (active); with DMS-114, 0.334 µM (active); with KM-20L2, 0.655 µM (active). Besides, the GI50 with DMS-273 is 0.184 µM (active).
On to `CCOC(=O)C1=C(C)N(NC(=O)Nc2ccccc2)C2(N)N(NC(=O)Nc3ccccc3)C(C)=C(C(=O)OCC)C12C#N` (stereo not drawn), for which the GI50 in the experiment with SNB-78 is 19.4 µM (inactive); in the experiment with DLD-1, 19.4 µM (inactive); in the experiment on M19-MEL, 17.8 µM (inactive); with DMS-114, 16.1 µM (inactive); with HOP-18, 16.3 µM (inactive); in the experiment with KM-20L2 it was 18.7 µM (inactive). The GI50 with DMS-273 is 17 µM (inactive).
Consider `Cc1nc(O)nc(CC(O)(c2ccccc2)c2ccccc2)c1-c1ccccc1`, for which the GI50 in the experiment with SNB-78 is > 100 µM (inactive); in the experiment with DLD-1, > 100 µM (inactive); in the experiment on M19-MEL, > 100 µM (inactive); with RXF 631, > 100 µM (inactive); in the experiment on DMS-114, 80.5 µM (inactive); in the experiment with HOP-18, > 100 µM (inactive). In addition, the GI50 in the experiment on KM-20L2 and in the experiment on DMS-273 was > 100 µM (inactive) throughout.
In the case of `CS/C(=N/C(=O)c1ccccc1Cl)SCCS/C(=N\C(=O)c1ccccc1Cl)SC`, the GI50 in the experiment with SNB-78, with DLD-1, with M19-MEL, with XF498, with DMS-114 and in the experiment on KM-20L2 was > 100 µM (inactive) throughout. In the experiment with DMS-273, the GI50 is > 100 µM (inactive).
Turning to `COC(=O)c1ccc(C(=O)OC)c2nc3cc(Cl)ccc3nc12`, the GI50 with DLD-1, with M19-MEL, in the experiment with RXF 631, in the experiment with XF498, in the experiment with DMS-114 and in the experiment with HOP-18 was > 100 µM (inactive) throughout. The GI50 in the experiment with KM-20L2 and with DMS-273 was > 100 µM (inactive) each time.
Consider `N#CC1=C(N)Oc2c(ccc3cccnc23)C1c1ccccc1` (stereo not drawn), for which the GI50 with SNB-78 was 1.45 µM (inactive); in the experiment on DLD-1, 2.3 µM (inactive); in the experiment with M19-MEL, 1.67 µM (inactive); in the experiment on XF498, 7.98 µM (inactive); with DMS-114 it was 0.914 µM (active); with HOP-18, > 100 µM (inactive). Also, the GI50 was 0.555 µM (active) in the experiment on KM-20L2 and 0.445 µM (active) in the experiment on DMS-273.
On to `N#Cc1ccc(Nc2cnc3cc(N)ccc3n2)cc1`, for which the GI50 was > 100 µM (inactive) in the experiment on SNB-78; > 100 µM (inactive) in the experiment with DLD-1; 89.7 µM (inactive) in the experiment on M19-MEL; 74.6 µM (inactive) in the experiment with XF498; 60.5 µM (inactive) in the experiment on DMS-114; 94 µM (inactive) in the experiment with KM-20L2. For the same molecule, in the experiment on DMS-273, the GI50 was > 100 µM (inactive).
Consider `Cc1nc2c(n1CC(C)(C)C)C(=O)c1ccccc1C2=O`, for which the GI50 with SNB-78 is > 100 µM (inactive); in the experiment on DLD-1 it was > 100 µM (inactive); in the experiment on XF498 it was > 100 µM (inactive); with KM-20L2, > 100 µM (inactive); in the experiment with DMS-273, 76.9 µM (inactive).
With `CCOC(=O)NC(=O)c1cn(CCCOC(=O)CCCCCCCCC(=O)OCCCn2cc(C(=O)NC(=O)OCC)c(=O)n(C)c2=O)c(=O)n(C)c1=O`, the GI50 with DLD-1 was > 100 µM (inactive); with M19-MEL, > 100 µM (inactive); with RXF 631, > 80.7 µM (inactive); in the experiment with XF498 it was > 54.3 µM (inactive); with DMS-114, > 100 µM (inactive); with HOP-18 it was > 100 µM (inactive). For the same molecule, the GI50 with KM-20L2 and in the experiment with DMS-273 was > 100 µM (inactive) in each case.
With `Cc1nc(Nc2ccccc2)sc1C(=O)CC(=O)C(=O)NC12CC3CC(CC(C3)C1)C2`, the GI50 in the experiment with SNB-78 is > 100 µM (inactive); in the experiment on DLD-1, 80.5 µM (inactive); in the experiment on M19-MEL it was > 100 µM (inactive); with XF498 it was > 100 µM (inactive); in the experiment on DMS-114, 78.7 µM (inactive); in the experiment with HOP-18, > 100 µM (inactive). The GI50 was 80.7 µM (inactive) with KM-20L2 and > 100 µM (inactive) in the experiment on DMS-273.
Take `[N-]=[N+]=NC12CC3C4CC5CC3C(C1)C(C5)C4C2`: the GI50 in the experiment on SNB-78, in the experiment with DLD-1, with M19-MEL, in the experiment with RXF 631, with XF498 and with DMS-114 was > 100 µM (inactive) in each case. Further, the GI50 in the experiment on HOP-18 and in the experiment on DMS-273 was > 100 µM (inactive) each time.
For the molecule `CNS(=O)(=O)NNS(=O)(=O)c1cccc([N+](=O)[O-])c1`, the GI50 in the experiment with DLD-1, in the experiment on M19-MEL, with DMS-114, with KM-20L2 and in the experiment with DMS-273 was > 100 µM (inactive) each time.
With `CC1=NN(C(=O)c2ccncc2)C(=O)C1/N=N/c1ccc(F)cc1` (stereo not drawn), the GI50 with SNB-78 is 63.1 µM (inactive); in the experiment with DLD-1, > 100 µM (inactive); in the experiment on M19-MEL, > 100 µM (inactive); with XF498, > 100 µM (inactive); in the experiment on DMS-114, > 100 µM (inactive); in the experiment with KM-20L2, > 100 µM (inactive). For the same molecule, in the experiment on DMS-273, the GI50 was 92.5 µM (inactive).
Consider `Cc1ccc(/C=C/C(=O)c2sc(-c3cccnc3)nc2C)cc1`, for which the GI50 in the experiment with SNB-78, with DLD-1, in the experiment on M19-MEL, with RXF 631, in the experiment on HOP-18 and in the experiment with KM-20L2 was > 100 µM (inactive) throughout. Also, the GI50 in the experiment with DMS-273 is > 100 µM (inactive).
For `Cc1nc2nnc(C)n2c2c1C(=O)Nc1ccccc1N2`, the GI50 in the experiment on SNB-78, with DLD-1, in the experiment on M19-MEL, with XF498, in the experiment on DMS-114 and in the experiment on HOP-18 was > 100 µM (inactive) throughout. In addition, the GI50 in the experiment with KM-20L2 and in the experiment with DMS-273 was > 100 µM (inactive) throughout.
With `Cc1cc2c(c(C(N)=O)c1C)-c1cc(Cl)cc(Cl)c1C2=O`, the GI50 in the experiment on SNB-78 is 41.3 µM (inactive); in the experiment on DLD-1, > 100 µM (inactive); in the experiment on M19-MEL, > 100 µM (inactive); in the experiment on DMS-114, > 100 µM (inactive); in the experiment with HOP-18, > 100 µM (inactive); in the experiment with KM-20L2 it was > 100 µM (inactive). Moreover, the GI50 with DMS-273 is > 100 µM (inactive).
Turning to `NCCNc1cccc2ccccc12`, the GI50 in the experiment with SNB-78, in the experiment with DLD-1, with M19-MEL, in the experiment with RXF 631, in the experiment on DMS-114 and with HOP-18 was > 100 µM (inactive) throughout. Moreover, the GI50 with KM-20L2 and with DMS-273 was > 100 µM (inactive) in each case.
Take `CCOC(=O)C12CCSC1C1(C#N)C(C#N)=CC2(N=P(c2ccccc2)(c2ccccc2)c2ccccc2)n2c(=O)n(-c3ccccc3)c(=O)n21` (stereo not drawn): the GI50 with SNB-78 was 68.5 µM (inactive); with DLD-1, 35.9 µM (inactive); in the experiment on M19-MEL it was 33.4 µM (inactive); in the experiment on RXF 631 it was 70 µM (inactive); in the experiment on XF498 it was 24.3 µM (inactive); with DMS-114, 29.4 µM (inactive). Further, the GI50 with KM-20L2 was 65 µM (inactive).
Regarding `CC1(O)CC2(O)C=CC3=C(C(=O)c4cccc(O)c4C3=O)C2(O)C(=O)C1O` (stereo not drawn), the GI50 in the experiment on DLD-1 was 0.791 µM (active); in the experiment on M19-MEL, 0.646 µM (active); in the experiment with DMS-114, 1.67 µM (inactive); with HOP-18, 1.7 µM (inactive); in the experiment with KM-20L2 it was 1.16 µM (inactive); in the experiment on DMS-273 it was 5.08 µM (inactive).
